{"source": "patent US8952024B2", "about": "“Herbicidal pyrimidone derivatives” (E I du Pont de Nemours and Company, priority 2009, dated 2015)", "type_in_all_cases": "in vivo", "key": {"[1]": {"test_system": "goosegrass (Eleusine indica)", "assay": "Test B pre-/postemergence plant response", "conditions": "Preemergence, 62 g ai/ha; scale 0 to 100, 0 no effect, 100 complete control"}, "corn (Zea mays)": {"test_system": "corn (Zea mays)", "assay": "Test A pre-/postemergence plant response", "how_it_was_run": "(§1)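 Approximately ten days after concurrent pre- and postemergence spraying in a greenhouse, plants were compared with untreated controls and rated visually for injury, 0 = no effect to 100 = complete control. Preemergence spray was directed onto loam/sand soil; postemergence targeted 1–2 leaf seedlings.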"}, "[2]": {"test_system": "giant foxtail (Setaria faberii)", "assay": "Test A pre-/postemergence plant response", "how_it_was_run": "as §1"}, "[3]": {"test_system": "velvetleaf (Abutilon theophrasti)", "assay": "Test A pre-/postemergence plant response", "how_it_was_run": "as §1"}, "[4]": {"test_system": "barnyardgrass (Echinochloa crus-galli)", "assay": "Test A pre-/postemergence plant response", "how_it_was_run": "as §1"}, "[5]": {"test_system": "large crabgrass (Digitaria sanguinalis)", "assay": "Test A pre-/postemergence plant response", "how_it_was_run": "as §1"}, "[6]": {"test_system": "wheat (Triticum aestivum)", "assay": "Test A pre-/postemergence plant response", "how_it_was_run": "as §1"}, "[7]": {"test_system": "windgrass (Apera spica-venti)", "assay": "Test B postemergence plant response", "conditions": "Postemergence", "how_it_was_run": "(§2)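 Visual ratings from 0 (no effect) to 100 (complete control), made against controls 13–15 days after treatment, kept in a greenhouse. Compounds were applied postemergence to potted plants at the 1- to 4-leaf stage (2–18 cm).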"}, "[8]": {"test_system": "winter barley (Hordeum vulgare)", "assay": "Test B postemergence plant response", "conditions": "Postemergence", "how_it_was_run": "as §2"}, "[9]": {"test_system": "canarygrass (Phalaris minor)", "assay": "Test B postemergence plant response", "conditions": "Postemergence", "how_it_was_run": "as §2"}, "[10]": {"test_system": "chickweed (Stellaria media)", "assay": "Test B postemergence plant response", "conditions": "Postemergence", "how_it_was_run": "as §2"}, "[11]": {"test_system": "galium (catchweed bedstraw, Galium aparine)", "assay": "Test B pre-/postemergence plant response", "conditions": "Preemergence", "how_it_was_run": "(§3)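 Pre-em in loam/sand; post-em at 1–4 leaf (2–18 cm) in peat mix. Solvent + surfactant formulation. Greenhouse 13–15 d; visual % control vs untreated, 0–100.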"}, "[12]": {"test_system": "sunflower (common oilseed sunflower, Helianthus annuus)", "assay": "Test B pre-/postemergence plant response", "conditions": "Preemergence", "how_it_was_run": "as §3"}, "[13]": {"test_system": "nightshade (eastern black nightshade, Solanum ptycanthum)", "assay": "Test B pre-/postemergence plant response", "conditions": "Preemergence", "how_it_was_run": "as §3"}, "[14]": {"conditions": "Postemergence, 125 g ai/ha, visual injury, 0 to 100 scale (0 no effect, 100 complete control), approx. ten days"}, "[15]": {"conditions": "Postemergence, 500 g ai/ha, 0 to 100 scale, 0 = no effect, 100 = complete control, approx. ten days"}, "[16]": {"conditions": "Preemergence, 125 g ai/ha, 0 to 100 scale, 0 = no effect, 100 = complete control"}, "[17]": {"conditions": "Preemergence, 500 g ai/ha, visual injury, 0 to 100 scale (0 no effect, 100 complete control), approx. ten days"}, "[18]": {"conditions": "31 g ai/ha, scale 0 to 100 (0 no effect, 100 complete control)"}, "[19]": {"conditions": "62 g ai/ha, scale 0 (no effect) to 100 (complete control), 13 to 15 days"}, "[20]": {"conditions": "125 g ai/ha, visual rating after 13 to 15 days, scale 0 (no effect) to 100 (complete control)"}, "[21]": {"conditions": "62 g ai/ha, scale 0 to 100, 0 no effect, 100 complete control"}}, "data": [{"smiles": "Cc1cccc(-n2c(-c3ccccc3)ncc(C(=O)C3=C(O)CCCC3=O)c2=O)c1C", "note": "[Compound 27]", "values": [{"measurement": "Plant response rating, Goosegrass", "setting": "[1]", "value": 98}, {"measurement": "Corn plant response rating", "setting": "corn (Zea mays); [14]", "value": 0}, {"measurement": "Plant response rating, Corn", "setting": "corn (Zea mays); [15]", "value": 30}, {"measurement": "Plant response rating, Corn", "setting": "corn (Zea mays); [16]", "value": 0}, {"measurement": "Plant response rating, Corn", "setting": "corn (Zea mays); [17]", "value": 0}, {"measurement": "Foxtail, Giant plant response rating", "setting": "[2]; [14]", "value": 80}, {"measurement": "Plant response rating, Foxtail, Giant", "setting": "[2]; [15]", "value": 90}, {"measurement": "Plant response rating, Foxtail, Giant", "setting": "[2]; [16]", "value": 30}, {"measurement": "Plant response rating, Foxtail, Giant", "setting": "[2]; [17]", "value": 90}, {"measurement": "Velvetleaf plant response rating", "setting": "[3]; [14]", "value": 100}, {"measurement": "Plant response rating, Velvetleaf", "setting": "[3]; [15]", "value": 100}, {"measurement": "Plant response rating, Velvetleaf", "setting": "[3]; [16]", "value": 60}, {"measurement": "Plant response rating, Velvetleaf", "setting": "[3]; [17]", "value": 100}, {"measurement": "Barnyardgrass plant response rating", "setting": "[4]; [14]", "value": 50}, {"measurement": "Plant response rating, Barnyardgrass", "setting": "[4]; [15]", "value": 90}, {"measurement": "Plant response rating, Barnyardgrass", "setting": "[4]; [16]", "value": 10}, {"measurement": "Plant response rating, Barnyardgrass", "setting": "[4]; [17]", "value": 80}, {"measurement": "Crabgrass, Large plant response rating", "setting": "[5]; [14]", "value": 70}, {"measurement": "Plant response rating, Crabgrass, Large", "setting": "[5]; [15]", "value": 100}, {"measurement": "Plant response rating, Crabgrass, Large", "setting": "[5]; [16]", "value": 30}, {"measurement": "Plant response rating, Crabgrass, Large", "setting": "[5]; [17]", "value": 90}, {"measurement": "Wheat plant response rating", "setting": "[6]; [14]", "value": 0}, {"measurement": "Plant response rating, Wheat", "setting": "[6]; [15]", "value": 0}, {"measurement": "Plant response rating, Wheat", "setting": "[6]; [16]", "value": 0}, {"measurement": "Plant response rating, Wheat", "setting": "[6]; [17]", "value": 0}, {"measurement": "Plant response rating, Windgrass", "setting": "[7]; [18]", "value": 10}, {"measurement": "Plant response rating, Windgrass", "setting": "[7]; [19]", "value": 10}, {"measurement": "Plant response rating, Windgrass", "setting": "[7]; [20]", "value": 50}, {"measurement": "Windgrass plant response rating", "setting": "[7]; 250 g ai/ha, scale 0 to 100", "value": 60}, {"measurement": "Plant response rating, Barley", "setting": "[8]; [18]", "value": 0}, {"measurement": "Plant response rating, Barley", "setting": "[8]; [19]", "value": 0}, {"measurement": "Plant response rating, Barley", "setting": "[8]; 125 g ai/ha, scale 0 to 100 (0 no effect, 100 complete control), 13 to 15 days", "value": 10}, {"measurement": "Barley plant response rating", "setting": "[8]; 250 g ai/ha, scale 0 to 100", "value": 20}, {"measurement": "Plant response rating, Canarygrass", "setting": "[9]; [18]", "value": 10}, {"measurement": "Plant response rating, Canarygrass", "setting": "[9]; [19]", "value": 10}, {"measurement": "Plant response rating, Canarygrass", "setting": "[9]; [20]", "value": 30}, {"measurement": "Canarygrass plant response rating", "setting": "[9]; 250 g ai/ha, scale 0 to 100", "value": 50}, {"measurement": "Plant response rating, Chickweed", "setting": "[10]; [18]", "value": 40}, {"measurement": "Plant response rating, Chickweed", "setting": "[10]; [19]", "value": 45}, {"measurement": "Plant response rating, Chickweed", "setting": "[10]; [20]", "value": 50}, {"measurement": "Chickweed plant response rating", "setting": "[10]; 250 g ai/ha, scale 0 to 100", "value": 80}, {"measurement": "Plant response rating, Galium", "setting": "[11]; 250 g ai/ha, 0 to 100 scale", "value": 95}, {"measurement": "Plant response rating, Galium", "setting": "[11]; [18]", "value": 0}, {"measurement": "Plant response rating, Galium", "setting": "[11]; [21]", "value": 50}, {"measurement": "Galium plant response rating", "setting": "[11]; 125 g ai/ha, 0 to 100 scale", "value": 85}, {"measurement": "Plant response rating, Sunflower", "setting": "[12]; 250 g ai/ha, 0 to 100 scale", "value": 100}, {"measurement": "Plant response rating, Sunflower", "setting": "[12]; [18]", "value": 75}, {"measurement": "Plant response rating, Sunflower", "setting": "[12]; [21]", "value": 75}, {"measurement": "Sunflower plant response rating", "setting": "[12]; 125 g ai/ha, 0 to 100 scale", "value": 90}, {"measurement": "Plant response rating, Nightshade", "setting": "[13]; 250 g ai/ha, 0 to 100 scale", "value": 100}, {"measurement": "Plant response rating, Nightshade", "setting": "[13]; [18]", "value": 80}, {"measurement": "Plant response rating, Nightshade", "setting": "[13]; [21]", "value": 98}, {"measurement": "Nightshade plant response rating", "setting": "[13]; 125 g ai/ha, 0 to 100 scale", "value": 100}]}]}
